Active and inactive are the calls of the source. No cut-off for these calls is given here. Where a SMILES comes first, the peptide text is derived from it.
Tests used:
Adapter molecule crk [1] = target: T1, Adapter molecule crk (Homo sapiens, UniProt P46108); experiment: Binding affinity to human c-CRK N-terminal SH3 domain expressed in Escherichia coli BL21 (DE3) by tryptophan fluorescence quenching assay
Adapter molecule crk [2] = target: T1, Adapter molecule crk; experiment: Binding affinity to recombinant human CRK-2 nSH3 domain (1 to 304 residues) expressed in Escherichia coli by NMR analysis
Adapter molecule crk [3] = target: T1, Adapter molecule crk; experiment: Binding affinity to recombinant human CRK-2 nSH3 domain (1 to 304 residues) expressed in Escherichia coli by tryptophan fluorescence quenching assay
Adapter molecule crk [4] = target: T1, Adapter molecule crk; experiment: Ratio of Kd for recombinant human CRK-2 nSH3 domain (1 to 304 residues) expressed in Escherichia coli at 35 degC in presence of 1 M NaCl to Kd for recombinant human CRK-2 nSH3 domain (1 to 304 residues) expressed in Escherichia coli at 35 degC in presence of 80 mM NaCl
Adapter molecule crk [5] = target: T1, Adapter molecule crk; experiment: Binding affinity to recombinant human CRK-2 nSH3 domain (1 to 304 residues) expressed in Escherichia coli at 25 degC by tryptophan fluorescence quenching assay
Adapter molecule crk [6] = target: T1, Adapter molecule crk; experiment: Binding affinity to recombinant human CRK-2 nSH3 domain (1 to 304 residues) expressed in Escherichia coli assessed as inhibition of interaction with Abl by measuring Abl-mediated CRK-2 phosphorylation at Y221 residue at 1 uM after 10 to 30 mins by PAGE analysis (reference value: 62%); set-up: scale not given: the % may be the effect or the level left
Adapter molecule crk [7] = target: T1, Adapter molecule crk; experiment: Binding affinity to recombinant human CRK-2 nSH3 domain (1 to 304 residues) expressed in Escherichia coli assessed as inhibition of Abl T315I mutant-mediated CRK-2 phosphorylation at Y221 residue at 1 uM after 10 to 30 mins by PAGE analysis

T1 sequence (P46108 whole entry, the tested form may be a part): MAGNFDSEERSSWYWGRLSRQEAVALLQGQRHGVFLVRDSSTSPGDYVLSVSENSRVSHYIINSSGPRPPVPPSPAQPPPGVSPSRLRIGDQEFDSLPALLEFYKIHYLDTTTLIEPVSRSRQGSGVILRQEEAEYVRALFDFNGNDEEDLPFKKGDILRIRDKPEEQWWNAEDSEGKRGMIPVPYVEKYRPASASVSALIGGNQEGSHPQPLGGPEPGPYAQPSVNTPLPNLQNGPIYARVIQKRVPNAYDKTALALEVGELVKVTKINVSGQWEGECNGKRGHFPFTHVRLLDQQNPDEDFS

Kd (Adapter molecule crk [1]) [nM] | Activity (Adapter molecule crk [2]) | Kd (Adapter molecule crk [3]) [nM] | Ratio (Adapter molecule crk [4]) | Kd (Adapter molecule crk [5]) [nM] | Activity (Adapter molecule crk [6]) [%] | inhibition (Adapter molecule crk [7]) | Compound
1900 | Active |  |  |  |  |  | CC(C)C[C@H](NC(=O)[C@H](C)NC(=O)[C@@H]1CCCN1C(=O)[C@@H]1CCCN1C(=O)[C@@H]1CCCN1)C(=O)N1CCC[C@H]1C(=O)N1CCC[C@H]1C(=O)N[C@@H](CCCCN)C(=O)N[C@@H](CCCCN)C(=O)N[C@@H](CCCNC(=N)N)C(=O)O
 | Active | 9 | 50 | 9 | 21 | Active | CC(C)C[C@H](NC(=O)[C@H](C)NC(=O)[C@@H]1CCCN1C(=O)[C@@H]1CCCN1C(=O)[C@@H](N)CO)C(=O)N1CCC[C@H]1C(=O)N[C@@H](CCCCN)C(=O)N[C@@H](CCCCN)C(=O)N[C@@H](CCCNC(=N)N)C(=O)N[C@@H](CCC(N)=O)C(=O)N[C@@H](CO)C(=O)N[C@@H](Cc1ccc(O)cc1)C(=O)N[C@@H](CCCNC(=N)N)C(=O)N[C@@H](CCCNC(=N)N)C(=O)O (H-SPPALPKKRQSYRR-OH)
 |  |  |  |  | 33 | inactive | Cc1ccc(NC(=O)c2ccc(CN3CCN(C)CC3)cc2)cc1Nc1nccc(-c2cccnc2)n1
 | Active | 400 |  |  |  |  | CC(C)C[C@H](NC(=O)[C@H](C)NC(=O)[C@@H]1CCCN1C(=O)[C@@H]1CCCN1C(=O)[C@@H]1CCCN1C(=O)[C@H](CO)NC(=O)[C@H](CC(N)=O)NC(=O)[C@@H](N)CC(=O)O)C(=O)N1CCC[C@H]1C(=O)N[C@@H](CCCCN)C(=O)N[C@@H](CCCCN)C(=O)N[C@@H](CCCNC(=N)N)C(=O)N[C@@H](CCC(N)=O)C(=O)N[C@@H](CO)C(=O)N[C@@H](Cc1ccc(O)cc1)C(=O)O (H-DNSPPPALPKKRQSY-OH)
